Assays:
lysyl oxidase (LOX) = assay: peroxidase-coupled fluorometric lysyl oxidase activity assay on conditioned medium of cultured corneal stroma cells; type: cell-based; conditions: 0.0016 mg/mL CuSO4 in BSS vs BSS control, fibroblast cells from normal corneas and corneas having low corneal stiffness, FIGS. 1A-1B
Procedure: Cultured corneal stroma cells from normal corneas and corneas having low corneal stiffness (n=3 each) in 10% FBS DMEM were either exposed to BSS control or 0.0016 mg/mL CuSO4 in balanced salt solution (BSS) then filtered through a 0.25 μm filter. Conditioned culture medium underwent a peroxidase-coupled fluorometric activity assay for lysyl oxidase (LOX).
Tissues were collected under sterile techniques in an operative setting. Tissue samples were stored in a 10 cm tissue culture dish in an Optisol solution. Corneal tissue was suspended in 15% fetal bovine serum (FBS) DMEM/F12 with penicillin/streptomycin. Epithelium and Descemet's membrane were removed mechanically under a stereo microscope. The samples were further cut into small pieces by a surgical scissor, and added to 1 mg/mL collagenase; 10 mL per cornea was used. The sample pieces were plated to a 10 cm tissue culture dish and placed in a tissue culture incubator at 37° C. with 5% CO2. After 5 days, the cells were harvested and plated in 10% FBS DMEM without phenol red.
LOX enzyme activity in culture medium was measured using a peroxidase-coupled fluorometric assay using Amplex red. […] The fluorescence of oxidized Amplex red was recorded every 10 minutes using fluorescence plate reader. After subtracting the background fluorescence, the fluorescence intensity was plotted against the incubation time (FIGS. 1A and 1B).

human cadaver corneas = assay: cornea radial strain measurement, human cadaver corneas immersed in CuSO4
Procedure: (§1) Cornea radial strain measurements were performed on human cadaver corneas and on rabbit corneas. Human cadaver corneas (n=2 pairs) were cultured as previously mentioned in Example 1. The treated group was immersed in 0.0016 mg/ml CuSO4 for 2 weeks. The samples also contained a small portion of sclera at both ends. Mineral oil was applied on the surface of the sclera-cornea-sclera strip to minimize tissue dehydration. Rabbit corneas were divided into 4 groups. Two groups were treatment groups receiving either CuSO4 pentahydrate 0.0025 mg/ml three times per day or CuSO4 pentahydrate 0.0025 mg/ml once per day. Two groups served as control receiving only BSS.
(§2) The sample was coupled between a motor and a transducer that applied a controlled pressure from 5-30 mmHg and measured the resultant radial strain. The sample length between the two gripping jaws was approximately 10 mm. Sample geometric information, including width and thickness, was input into the Rheometrics System Analyzer (RSA) control panel. Sample thickness was measured by an ultrasound pachymeter (DGH 550 Pa-chette2; DGH Technology, Exton, PA).

rabbit corneas = assay: cornea radial strain / corneal biomechanics, rabbit corneas after eye drop treatment; type: in vivo; conditions: CuSO4 pentahydrate 0.0025 mg/ml once or three times per day; compared with laser cross-linking; FIG. 3
Procedure: as §1, §2

[1] = tested on: New Zealand white rabbits; assay: rabbit corneal topography (diopter measurements); type: in vivo; conditions: 0.0025 mg/ml once or three times per day or 0.025 mg/ml once per day, 5 weeks; controls no drops, BSS, artificial tears; FIG. 4
Procedure: Copper sulfate pentahydrate (CuSO4) at 0.0025 mg/ml was administered to New Zealand white rabbits at a dose of once per day and three times per day. Additionally, a high concentration sample of 0.025 mg/ml CuSO4 pentahydrate was administered to New Zealand with rabbits once per day during the treatment period. Three different controls were administered either no drops, BSS, or artificial tears. Each of the 6 groups included 6 test subjects each. Topography images were taken before treatment and weekly for 5 weeks. Diopter measurements were the mean K values and at 3 mm. These values were compared to diopter measurements in laser cross-linked corneas after 1 month and 1 year.

rabbits = assay: safety of copper eye drops in vivo (ERG, slit-lamp, AS-OCT, histology); design: species or system rabbit; conditions: 0.0025 mg/ml TID or QD, 6 weeks
Procedure: Copper sulfate (CuSO4) pentahydrate solution was prepared at a concentration of 0.0025 mg/ml and administered three times a day (TID) or once a day (QD) to rabbits. An anterior segment evaluation was performed with slit-lamp biomicroscopy and Heidelberg Spectralis anterior segment optical coherence tomography (AS-OCT). Two rabbits (n=4 eyes) were sacrificed at each of day 1, week 1, week 4, and week 6 for copper levels in eye tissues and compared to control (no drops) rabbits. Aqueous humor, vitreous, retina, cornea, lens, and blood samples were analyzed for copper ions using inductively coupled plasma mass spectrometry (ICP-MS).
Rabbits (n=2) were sacrificed after 42 days by intravenous injection of 0.3 ml/kg euthanasia solution and the eyes were enucleated for histological evaluations and reading for signs of inflammation, tissue damage, scarring and fibrosis. The anterior section of the eyes were fixed in 10% formaldehyde-glutaraldehyde solution, dehydrated in a graded series of alcohol, embedded in paraffin, and sectioned with a microtome. The sections were stained with appropriate staining (hematoxylin and eosin and Masson Trichrome).

albino guinea pigs = tested on: albino guinea pigs
Procedure: Progressive myopia occurs more often in albino guinea pigs than in their wild type counterparts, even without imposing diffusers or lenses. Guinea pigs were subjected to a cycle of 12 hours of light/12 hours of dark. An eye drop including 0.0025 mg/ml CuSO4 pentahydrate in phosphate buffered ophthalmic solution was administered at approximately 2 weeks of age to the right eyes (OD) of albino guinea pigs (n=4). Left eyes (OS) received control drops (ophthalmic vehicle only). Eye drops (approximately 30 μL) were administered 3 times per day for approximately 6 weeks. Refractive error was measured by a pediatric ophthalmologist prior to treatment on day 1 and at subsequent timepoints according to the schedule depicted in FIGS. 7A-7B. […] FIGS. 7A-7B present average refractive error measurements for the test subjects in each eye with error bars and linear fit, respectively.

New Zealand white rabbit [2] = conditions: 0.0025 mg/ml 3 times per day for 6 weeks vs vehicle and control groups; FIG. 8
Procedure: New Zealand white rabbit right eyes were separated (n=6 per group) into treatment group (0.0025 mg/ml CuSO4 pentahydrate in phosphate buffered ophthalmic solution), vehicle group (phosphate buffered ophthalmic solution), and control group (no drops). Drops were administered 3 times per day for 6 weeks in treatment eyes. Animals were followed weekly for TOP measurements, topography and ocular response analyzer. At the end of the 6 weeks, rabbits were sacrificed and eye was immediately dissected within 30 minutes of sacrifice. Recovered corneas weight was recorded. Samples were reduced with NaBH4 at room temperature then washed with water twice, dried, and hydrolyzed with 6N HCl in vacuo for 18 hours at 110° C. Post hydrolysis, cross-link enrichment was carried out by using a cellulose mini-column method. LNL was measured by mass spectroscopy.

New Zealand white rabbit [3] = conditions: 0.0016 mg/ml 3x/day for 24 days
Procedure: New Zealand white rabbit right eyes (n=3) were treated with 0.0016 mg/ml CuSO4 3×/day for 24 days. Left eyes were treated with BSS (TID) for 24 days and served as controls. Corneal-OCT pictures were taken at baseline and at day 24.

[4] = 0.0016 mg/ml CuSO4 for 2 weeks vs untreated, FIG. 2

| SMILES | LOX enzyme activity (lysyl oxidase (LOX)) | LOX enzyme activity (lysyl oxidase (LOX); listed as copper) | corneal strength (human cadaver corneas; FIG. 2 legend) | corneal biomechanics (rabbit corneas) | diopter measurements (mean K and at 3 mm), change vs control groups [1] | toxicity in dissected eye tissues (rabbits) | histopathological analysis of dissected eyes (albino guinea pigs; 0.0025 mg/ml 3 times per day, approximately 6 weeks, data not shown) | myopic progression (average refractive error) in the treatment eye (albino guinea pigs; 0.0025 mg/ml eye drop 3 times per day for approximately 6 weeks, OD vs vehicle OS, FIGS. 7A-7B) | IOP measurements (albino guinea pigs; all eyes during the study, within normal limits, data not shown) | LNL crosslinking in corneas (New Zealand white rabbit [2]) | corneal stiffness (human cadaver corneas; [4]) | radial strain (human cadaver corneas; [4]) | average peak radial strain induced by ocular pulse, treated vs untreated corneas (human cadaver corneas; at 20 mmHg) | increase in corneal strength (human cadaver corneas; from peak radial strain at 20 mmHg, treated vs untreated) [%] | cornea epithelial layer by OCT / gross toxicity to the corneas (New Zealand white rabbit [3]) | slit-lamp examination (New Zealand white rabbit [3]) | central cornea flattening by OCT (New Zealand white rabbit [3]; right eyes n=3 vs BSS left eyes, FIGS. 6A-6F) |
| --- | --- | --- | --- | --- | --- | --- | --- | --- | --- | --- | --- | --- | --- | --- | --- | --- | --- |
| [Cu] [Cu, copper] | increased | dramatically increased | increased | improved | decreased | no observed toxicity |  |  |  |  |  |  |  |  |  |  |  |
| O.O.O.O.O.O=S(=O)([O-])[O-].[Cu+2] [CuSO4 pentahydrate, copper (II) sulfate pentahydrate] |  |  |  | comparable to that seen with laser cross-linking |  |  | no observed toxicity | effective in reducing myopic progression | 15-25 mmHg | increased |  |  |  |  |  |  |  |
| O=S(=O)([O-])[O-].[Cu+2] [CuSO4, copper (II) sulfate] |  |  |  |  | greater decrease |  |  |  |  |  | marked increase | decrease | about 1.5 times lower | ~50 | no gross toxicity | no inflammation or opacification | cornea flattening in all 3 treatment eyes |

Reference: patent US12544400B2, “Treatment of myopic progression” (University of Utah Research Foundation, priority 2018, dated 2026)
